# According to PMC7256776, “Pharmacokinetic Comparisons of Eight Active Components from Raw Farfarae Flos and Honey-Processed Farfarae Flos after Oral Administration in Rats by UHPLC-MS/MS Approaches” (Journal of Analytical Methods in Chemistry, 2020):
# Read-outs that look alike come from different tables or passages of the source.
# How the values were obtained:
# [1] = Pharmacokinetic study in rats after oral administration of R-FF or H-FF extract (UHPLC-MS/MS of serum); format: in vivo, SD rats; conditions: for eliminate rate (judged from t1/2 and MRT values): R-FF group; for double peak phenomena in serum concentration-time curve: both R-FF and H-FF, Figure 3; for AUC(0-inf) / AUC(0-t) / Cmax / Tmax / half-life / MRT last: male, SD, rat, serum, po, 140 g/kg; for AUC(0-inf) / AUC(0-t) / Cmax / Tmax / half-life / MRT last / t 1/2 / C max / MRT0–t / T max: mean ± SD; for AUC(0-inf) / AUC(0-t) / Cmax / Tmax / half-life / t 1/2 / C max / MRT0–t / T max: n = 6; for MRT last: n = 6, read-out: MRT0–t; for change of T1/2 in H-FF group compared to R-FF group / change of MRT0–t in H-FF group compared to R-FF group: oral, H-FF vs R-FF
# Procedure: MS analysis was performed on a TSQ Quantis™ triple quadrupole mass spectrometer (Thermo Scientific™, Vanquish™, (Waltham, MA, USA)) equipped with an autosampler. Chromatographic separation was performed on a Thermo Hypersil GOLD C18 column (100 mm × 2.1 mm, 1.9 µm particles). The column temperature was maintained at 30°C. Through the Thermo Scientific™, TraceFinder™ software was acquired and processed. The mobile phase was composed of acetonitrile (A) and water (both containing 0.3% formic acid) (B) with a gradient elution program (0–5 min:10–19% acetonitrile, 5–8 min:19–25% acetonitrile, 8–28 min:25%–100% acetonitrile, 28–32 min: 100%–10%, and 32–34 min: 10%–10%). The system was re-equilibrated in the initial mobile phase 4.0 min before the next injection. The flow rate was set at 0.3 mL/min, and the injection volume was set as 2 μL.
# The analytes were detected on a TSQ Quantis triple quadrupole mass spectrometer by selected reaction monitoring (SRM) equipped with a heated electrospray ionization source operated in negative ion modes. The parameters were set as follows: the sheath gas and the aux gas were set at 30 Arb and 10 Arb, respectively; the ion transfer tube temperature was maintained at 325°C; and the vaporizer temperature was set to 350°C.
# 5 μL of IS solution containing chloramphenicol 100 ng/ml and 795 μL of acetonitrile were added to a 100 μL drug serum sample for sedimentation of proteins. Subsequently, the 1.5 mL centrifuge tube containing mixture was vortexed for 5 min. After that, the mixture was centrifuged at 12,000 rpm for 20 min at 4°C. Finally, the supernatant fluid was removed and evaporated to dryness under a stream of nitrogen at 35°C. The dried residue was redissolved by 100 μL 50% methanol aqueous solution. And the supernatant prepared above was filtered through 0.22 μm membranes transferred to vials by the UHPLC-MS/MS system for data analysis.
# 12 adult male SD rats (weighing 250∼300 g) were used in pharmacokinetics experiments and randomly assigned to two groups: R-FF group and H-FF group. Before being administered R-FF or H-FF extract, all the rats fasted but with free access to water for 12 h. The R-FF or H-FF extract was orally administered to the rats (140 g/kg body weight). Aliquots of 0.3 ml blood samples were collected in 1.5 ml heparin lithium-anticoagulant tubes at (0.083, 0.166, 0.333, 0.5, 1, 2, 4, 6, 8, 12, 24, 36, and 48 h) via the postorbital venous plexus veins from each rat after oral administration. The blood sample was immediately centrifuged at 3500 rpm for 5 min, and the supernatant 100 μL serum was transferred into a new centrifuge tube and stored at −80°C until analysis.
# [2] = format: in vitro ADME; conditions: rat plasma, IS 100 ng/mL, n = 3
# Procedure: Short-term stability was calculated by keeping the QC samples at room temperature for 4 hours. Long-term stability was investigated by storing the same QC samples at −20°C in a refrigerator for 30 days. The freeze and thaw stability was determined by analyzing the same QC samples after 3 consecutive freeze-thaw (−20 to 20°C) cycles. The postpreparative stability was evaluated by keeping the QC samples at autosampler for 24 hours.
eliminate rate (judged from t1/2 and MRT values) [1],double peak phenomena in serum concentration-time curve [1],AUC(0-inf) ([1]; oral H-FF extract 140 g/kg) [µg·h/mL],AUC(0-t) ([1]; oral H-FF extract 140 g/kg) [ng·h/mL],Cmax ([1]; oral H-FF extract 140 g/kg) [ng/mL],Tmax ([1]; oral H-FF extract 140 g/kg) [min],half-life ([1]; oral H-FF extract 140 g/kg) [min],MRT last ([1]; oral H-FF extract 140 g/kg) [h],AUC(0-inf) ([1]; oral R-FF extract 140 g/kg) [µg·h/mL],AUC(0-t) ([1]; oral R-FF extract 140 g/kg) [ng·h/mL],Cmax ([1]; oral R-FF extract 140 g/kg) [ng/mL],Tmax ([1]; oral R-FF extract 140 g/kg) [min],half-life ([1]; oral R-FF extract 140 g/kg) [min],MRT last ([1]; oral R-FF extract 140 g/kg) [h],change of T1/2 in H-FF group compared to R-FF group [1],change of MRT0–t in H-FF group compared to R-FF group [1],Compound,other results
slow eliminate rate,obvious double peak phenomena,66.8 ± 12.2,24100 ± 2060,4550 ± 235,19.8,4730 ± 1560,12.7 ± 0.38,35.2 ± 9.99,20200 ± 405,4470 ± 311,19.8,1940 ± 1060,14.3 ± 0.25,,,"O=C(O)/C=C/c1ccc(O)c(O)c1 [Caffeic acid, caffeic acid]",
,,,,,,,,,,,,,,,,"O=C(N[C@H](CO)[C@H](O)c1ccc([N+](=O)[O-])cc1)C(Cl)Cl [Chloramphenicol (IS), chloramphenicol]",Freeze-thaw stability (RE%) ([2]; 3 freeze-thaw cycles (−20 to 20°C)): −4.77%; Short-term stability (RE%) ([2]; room temperature 4 hours): 0.74%; Long-term stability (RE%) ([2]; −20°C 30 days): −2.22%
slow eliminate rate,,428 ± 41.6,281000 ± 10800,80400 ± 6350,19.8,1970 ± 292,11.1 ± 0.16,236 ± 75.6,167000 ± 21800,75600 ± 3060,19.8,2000 ± 202,10.6 ± 0.82,a little shorter,,"O=C(/C=C/c1ccc(O)c(O)c1)O[C@@H]1C[C@](O)(C(=O)O)C[C@@H](O)[C@H]1O [Chlorogenic acid, chlorogenic acid]",
slow eliminate rate,,401 ± 22,351000 ± 16700,97300 ± 1150,19.8,1050 ± 94.2,13.2 ± 0.39,242 ± 49.1,170000 ± 5980,67800 ± 3100,19.8,1310 ± 555,11.2 ± 0.53,a little shorter,,"O=C(/C=C/c1ccc(O)c(O)c1)O[C@H]1[C@H](O)C[C@](O)(C(=O)O)C[C@H]1O [Cryptochlorogenic acid, cryptochlorogenic acid]",
fast eliminate rate,obvious double peak phenomena,2.25 ± 0.442,1760 ± 224,380 ± 5.89,19.8,199 ± 40.8,3.33 ± 0.11,2.14 ± 0.196,853 ± 29.4,253 ± 25.7,19.8,304 ± 112,4.21 ± 0.11,,,"COc1cc(/C=C/C(=O)O)ccc1O [Ferulic acid, ferulic acid]",
slow eliminate rate,,455 ± 14.6,,52300 ± 3010,19.8,1010 ± 305,15.2 ± 0.19,201 ± 7.21,194000 ± 6580,25200 ± 1590,19.8,,10.9 ± 1.04,,increased,"O=C(C=Cc1ccc(O)c(O)c1)OC1CC(O)(C(=O)O)CC(O)C1OC(=O)C=Cc1ccc(O)c(O)c1 (stereo not drawn) [Isochlorogenic acid B, isochlorogenic acid B]",t 1/2 ([1]; oral R-FF extract 140 g/kg): 9.68 ± 1.36 h
slow eliminate rate,,,,,,,,,,,,,,,increased,"O=C(C=Cc1ccc(O)c(O)c1)OC1CC(O)(C(=O)O)CC(O)C1OC(=O)C=Cc1ccc(O)c(O)c1 (stereo not drawn) [Isochlorogenic acid C, isochlorogenic acid C]",C max ([1]; oral H-FF extract 140 g/kg): 28183.80 ± 3739.61 ng/mL; MRT0–t ([1]; oral H-FF extract 140 g/kg): 16.42 ± 0.84 h; T max ([1]; oral H-FF extract 140 g/kg): 19.8 ± 0 min; t 1/2 ([1]; oral H-FF extract 140 g/kg): 22.14 ± 9.73 h; C max ([1]; oral R-FF extract 140 g/kg): 12916.78 ± 3117.99 ng/mL; MRT0–t ([1]; oral R-FF extract 140 g/kg): 14.32 ± 1.56 h; T max ([1]; oral R-FF extract 140 g/kg): 19.8 ± 0 min; t 1/2 ([1]; oral R-FF extract 140 g/kg): 20.36 ± 5.22 h
slow eliminate rate,obvious double peak phenomena,117 ± 15.9,95700 ± 6560,24700 ± 3220,19.8,883 ± 233,10.9 ± 0.44,87 ± 8.34,56000 ± 4220,,19.8,1810 ± 411,12.5 ± 1.19,a little shorter,,"O=C(C=Cc1ccc(O)c(O)c1)OC1CC(O)(C(=O)O)CC(O)C1O (stereo not drawn) [Neochlorogenic acid, neochlorogenic acid]",

Compound,eliminate rate (judged from t1/2 and MRT values) [1],double peak phenomena in serum concentration-time curve [1],AUC(0-inf) ([1]; oral H-FF extract 140 g/kg) [µg·h/mL],AUC(0-t) ([1]; oral H-FF extract 140 g/kg) [ng·h/mL],Cmax ([1]; oral H-FF extract 140 g/kg) [ng/mL],Tmax ([1]; oral H-FF extract 140 g/kg) [min],half-life ([1]; oral H-FF extract 140 g/kg) [min],MRT last ([1]; oral H-FF extract 140 g/kg) [h],AUC(0-inf) ([1]; oral R-FF extract 140 g/kg) [µg·h/mL],AUC(0-t) ([1]; oral R-FF extract 140 g/kg) [ng·h/mL],Cmax ([1]; oral R-FF extract 140 g/kg) [ng/mL],Tmax ([1]; oral R-FF extract 140 g/kg) [min],half-life ([1]; oral R-FF extract 140 g/kg) [min],MRT last ([1]; oral R-FF extract 140 g/kg) [h],change of T1/2 in H-FF group compared to R-FF group [1],change of MRT0–t in H-FF group compared to R-FF group [1],other results
"C[C@@H]1O[C@@H](OC[C@H]2O[C@@H](Oc3c(-c4ccc(O)c(O)c4)oc4cc(O)cc(O)c4c3=O)[C@H](O)[C@@H](O)[C@@H]2O)[C@H](O)[C@H](O)[C@H]1O [Rutin, rutin]",slow eliminate rate,obvious double peak phenomena,105 ± 9.98,64600 ± 4910,7040 ± 429,23.4 ± 5.4,857 ± 137,22.7 ± 0.82,211 ± 37.9,100000 ± 9130,7430 ± 446,19.8,1840 ± 842,18.91 ± 0.17,,increased,
